{"source": "paper PMC5354587", "about": "“Ergosterone-coupled Triazol molecules trigger mitochondrial dysfunction, oxidative stress, and acidocalcisomal Ca^2+ release in Leishmania mexicana promastigotes” (Microbial Cell, 2015)", "type_in_all_cases": "cell-based", "key": {"[1]": {"test_system": "Leishmania mexicana promastigotes", "assay": "Half-inhibitory concentration on parasites, modified MTT method", "protocol": "Parasites were treated with different concentrations of the synthesized compounds for 48 hours to determine their cytotoxic effect. A dose dependent growth inhibition was observed after this time.\n(§1) Promastigotes of Leishmania mexicana Bel 21 strain were cultured at 26°C in Liver Infusion Tryptone (LIT) medium supplemented with 10% fetal bovine serum (Internegocios). Primary cultures of human dermic fibroblasts were performed at 37°C in DMEN medium (Sigma) supplemented with 10% fetal bovine serum in a CO2 incubator at 5% CO2.\n(§2) To determine the IC50 in parasites and human fibroblasts the protocol described by was followed. Briefly, a suspension of 2 x 10^6 parasites per mL^-1 or 5 x 10^3 fibroblasts per well were transferred into 96 well plates and different concentrations of the compounds were added. Plates were incubated under the corresponding culture conditions for 48 or 72 hours for L. mexicana or human fibroblasts, respectively. Thereafter, parasites plates were centrifuged prior to the elimination of the supernatant. Cell viability was measured by the modified MTT method, where cells were incubated with the MTT substrate at 0.2 mg x mL^-1 for 4 hours. Colored crystals formed were solubilized in DMSO and absorbance was measured at 570 nm. IC50 was obtained from a dose response curve using the software OriginLab Pro 6.0^©."}, "[2]": {"test_system": "Leishmania mexicana promastigotes", "assay": "Mitochondrial membrane potential, Mitotracker Red CMXROS, flow cytometry", "conditions": "treatment up to 48 hours, flow cytometry", "protocol": "In order to determine the energetic state of the mitochondrion after parasites treatment, the compound Mitotraker Red CMXROS was used. As described in the Materials and Methods section, parasites were treated for 6, 16, 24, and 48 hours with each molecule at its IC50, then incubated with Mitotraker Red CMXROS (50 nM) for 30 minutes under culture conditions, and finally analyzed by flow cytometry. […] Additionally, to rule out if Erg itself (the non-azole fraction of the conjugates) could be responsible for this hyperpolarization, parasites were treated with this compound and ΔΨmit was monitored for up to 48 hours by flow cytometry.\n(§3) Mitotracker CMX Red(Invitrogen) was used to determine the mitochondrial membrane potential (Ψmit) of treated parasites. After 6, 16, 24, and 48 hours treatment, cells were incubated in culture medium with 50 nM Mitotracker CMX Red for 30 minutes at 26°C in the dark. Thereafter, parasites were washed twice with PBS, resuspended in 1 mL buffer, and analyzed using a cytometer (Beckman Coulter). Parasites incubated with valinomycin (500 nM for 30 minutes) were used as positive control. To evaluate the effect of ergosterone coupled molecules on the mitochondrial membrane potential immediately after molecule addition we used the fluorophore rhodamine-123, a mitochondrion-specific cationic dye, which distributes across the inner mitochondrial membranes strictly according to their membrane potential, as described before. Briefly, 1 x 10^7 parasites were washed twice with rhodamine 123 loading buffer (20 mM Tris-HCl, 130 mM KCl, 1 mM MgCl2, and 2 mM KH2PO4) and incubated with 20 μM rhodamine 123 for 45 minutes at 29°C under agitation. Samples were washed twice, resuspended in 500 μL of the same buffer, and transferred to a quartz cuvette. Fluorescence (ex 488 nm and em 530 nm) was registered in a Hitachi F-7000 Spectrofluorimeter. FCCP was used as control for mitochondrial membrane depolarization."}, "[3]": {"test_system": "Leishmania mexicana promastigotes", "assay": "Mitochondrial membrane potential immediately after addition, rhodamine 123", "conditions": "Erg-GTr 1.4 μM or Erg-GTr2 2.3 μM", "protocol": "As the Leishmania mitochondrion seems to be involved in [Ca^2+]cyt regulation and can also accumulate Ca^2+ [9], the effect of Erg-GTr and Erg-GTr2 was analyzed immediately after its addition to parasites preloaded with rhodamine 123.\nas §3, with “Samples were washed twice, resuspended in 500 μL of the same buffer, and transferred to a quartz cuvette.” left out, “FCCP was used as control for mitochondrial membrane depolarization.” left out"}, "[4]": {"test_system": "Leishmania mexicana promastigotes", "assay": "Alkalinization of acidocalcisomes, acridine orange", "conditions": "Erg-GTr 1.4 μM or Erg-GTr2 2.4 μM; nigericin 2 μM as control", "text": "Leishmania can store Ca^2+ in different compartments like the endoplasmic reticulum, the mitochondrion, and the acidocalcisomes. The major Ca^2+ reservoir is represented by this last organelle. In order to analyze if the [Ca^2+]cyt increase is due to its release from acidocalcisomes, parasites were charged with acridine orange and assayed fluorimetrically. Since acridine orange accumulates in acidic compartments, it allows detection of alkalinization.\nTo evaluate the effect of ergosterone coupled molecules on the Ca^2+ reservoir organelle acidocalcisome, parasites were stained with acridine orange as described previously. Briefly, 1 x 10^7 parasites were washed twice with loading buffer (20 mM Tris-HCl, 130 mM KCl, 1 mM MgCl2, and 2 mM KH2PO4) and incubated for 5 minutes with acridine orange (5 μM). Samples were washed twice, resuspended in 500 μL of the same buffer, and transferred to a stirred quartz cuvette at 29°C. Fluorescence (ex 488 nm and em 530 nm) was registered in a Hitachi F-7000 Spectrofluorimeter. Nigericin was used as control for acidocalcisome alkalinization."}, "[5]": {"test_system": "Leishmania mexicana promastigotes", "assay": "Transmission electron microscopy of treated parasites", "conditions": "48 hours, TEM", "protocol": "To analyze if changes observed after parasite treatment with Erg-GTr or Erg-GTr2 can be associated with morphological alterations, cells were prepared for transmission electron microscopy as described in materials and methods section.\nFigure 5 FIGURE 5: Transmission electron microscopy (TEM) of Epon-embedded cells. Parasites were treated with 1.4 μM Erg-GTr, 2.3 μM Erg-GTr2 or DMSO (control cells), harvested after 48 hours and prepared for TEM. (A) The most obvious alterations in Erg-GTr-treated cells are as follows: increase of vacuolar structures containing cytoplasmic material (c, d, f, h), myelin-like structures (d, h), increase of lysosomes (d, e, g), and flagellar pocket containing some material (g). Note the usual appearance of mitochondria, nucleus and cytoplasmic content in control cells (a, b). Abbreviations used: lysosome (L); nucleus (N); flagellar pocket (FP); mitochondrion (M). Arrows and asterisk indicate autophagosomes and myelin-like structures, respectively. (B) Mitochondrion zoom in to show cristae. […] Bars represent 0.5 μ each.\nFor TEM, 10^8 parasites were fixed in 2% (vol/vol) glutaraldehyde in 0.2 M sodium cacodylate buffer containing 0.12 M sucrose for 1 h at 4°C. Thereafter samples were washed four times (10 min each) and stored overnight in sodium cacodylate buffer. Before dehydration in ethanol, cells were postfixed in osmium tetroxide (1.5%, wt/vol) and stained in 0.5% uranyl acetate. Samples were cleared in propylene oxide and embedded in Agar 100 as described by. Sections were stained in 5% (wt/vol) uranyl acetate and 0.4% (wt/vol) lead citrate."}, "[6]": {"test_system": "human dermic fibroblasts", "assay": "Half-inhibitory concentration on human fibroblasts, modified MTT method", "conditions": "Fibroblast, 72 hours", "protocol": "as §1, §2"}}, "data": [{"smiles": "CC(C)C(C)C=CC(C)C1CCC2C3=CC(=NNC(=O)n4cnnc4)C4(O)CC(=O)CCC4(C)C3CCC21C", "note": "(stereo not drawn) [Erg-GTr, [1,2,4]triazole-4-carboxylic acid [5-hydroxy-10,13-dimethyl-3-oxo-17-(1,4,5-trimethyl-hex-2-enyl)-1,2,3,4,5,9,10,11,12,13,14,15,16,17-tetradecahydro-cyclopenta[a]phenanthren-6-ylidene]-hydrazide]", "values": [{"measurement": "IC50", "setting": "[1]; Leishmania mexicana, 48 h, read-out: IC50 on L. mexicana promastigotes", "value": "1.4 ± 0.4", "unit": "µM"}, {"measurement": "Selectivity index", "setting": "[1]; promastigotes compared to human dermic fibroblasts", "value": 9.8}, {"measurement": "effect on inner mitochondrial membrane potential (ΔΨmit)", "setting": "[2]", "value": "hyperpolarize"}, {"measurement": "rhodamine 123 fluorescence (depolarization of mitochondrial membrane potential)", "setting": "[3]", "value": "slow fluorescence increase"}, {"measurement": "acridine orange fluorescence (acidocalcisome alkalinization)", "setting": "[4]", "value": "rapid fluorescence increase"}, {"measurement": "autophagy (ultrastructural changes)", "setting": "[5]", "value": "Induction of autophagy"}, {"measurement": "treated parasites showing increase in cristae number and size", "setting": "[5]", "value": "More than 50%"}, {"measurement": "number and size of mitochondrion cristae", "setting": "[5]; compared with control", "value": "higher"}, {"measurement": "IC50", "setting": "[6]", "value": "13.7 ± 1.9", "unit": "µM"}]}]}
